Measured values taken from patent publication US10265372B2, “Molecular composition for enhancing and rejuvenating maintenance and repair of mammalian tissues” (The Regents of the University of California, priority 2014, dated 2019).
“Also recorded” adds a separate entry of the source.

Assays:
[1] = test system: rat neural precursor cells; experiment: Neural precursor cell proliferation in basal medium, BrdU pulse (FIG. 3C); type: cell-based; conditions: rat neural precursor cells in basal medium (DMEM/F12/N2)
Excerpt: (§1) FIGS. 3A-3C depict dose-curve matrices of OT, Alk5i and OT+Alk5i effects on myogenic and neurogenic cell proliferation. FIGS. 3A-3C show the effect of the indicated concentrations of OT (in nM) and Alk5-inhibitor (a5i, μM) on primary myoblasts in Opti-MEM (FIG. 3A); on old satellite cells isolated from 3 DPI muscle in Opti-MEM with 5% old mouse serum (FIG. 3B); and on rat neural precursor cells in basal medium (DMEM/F12/N2) (FIG. 3C). Cells were pulsed with BrdU, and BrdU immunodetection and Hoechst staining were performed. Percent proliferating cells (myogenic and neurogenic) were quantified (manually, by ImageJ and by Molecular Devices ImageXpress Micro automated epifluorescence imager, with automated cell quantification by MetaXpress). Shown is the percent proliferation visualized as a topographic map.
Isolation and Culture of Neural Progenitor Cells: Primary rat neural progenitor cells (NPCs) isolated from the hippocampi of Fisher 344 rats (Charles River) will be maintained in DMEM/F12 (Life Technologies) containing N2 supplement (Life Technologies) and 10 ng/mL FGF-2 (PeproTech) on laminin (Roche) and polyornithine (Sigma) coated tissue culture plates. […]

[2] = test system: aged mice
[3] = test system: primary myoblasts; experiment: Primary myoblast proliferation, BrdU pulse, OT/Alk5i dose matrix (FIG. 3A); type: cell-based, mouse; conditions: primary myoblasts in Opti-MEM (low mitogen), OT in nM, Alk5i in μM
Excerpt: as §1
Isolation of Muscle Stem Cells and Primary Myoblasts: Tibialis Anterior (TA) and Gastrocneimus (Gastroc) muscles will undergo enzymatic digestion with collagenase type II. Fat pads and tendons will be removed and rounds of muscle trituration and sedimentation will purify myofibers with associated muscle stem (satellite) cells. Myofibers will be incubated with collagenase type II and dispase; suspensions will be vortexed to release satellite cells from digested fibers, passed through a cell strainer and pre-plated on uncoated dishes for 20 minutes at 37° C., 5% CO2. […]

[4] = test system: TA muscle regeneration after CTX injury; experiment: In vivo epistasis between TGFβ1 and oxytocin: TA muscle regeneration after CTX injury (FIG. 4A-4B); set-up: species or system mouse; conditions: young (3 mo) mice, CTX-injured TA, 5 days after injury; for Muscle regeneration after injury, effect of ectopic TGFβ1 alone (histology): recombinant TGFβ1 20 ng/muscle
Procedure: Further support for the advantages of the combined administration of OT and Alk5i comes from the observation of epistasis between the TGF-beta1 and oxytocin.
FIGS. 4A and 4B show the in vivo epistasis between TGFβ1 and Oxytocin. Young (3 mo) mouse TA muscles were injured with CTX with or without recombinant TGFβ1 (20 ng/muscle), and mice were administered 1 μg/g OT or vehicle (HBSS) by subcutaneous delivery into circulation. TGFβ1 or vehicle and OT were administered again the following day. Mice were sacrificed 5 days after injury and muscle sectioned for histological examination (with Hematoxilin and Eosin staining) in 10 um cryosections. All samples were processed and analyzed in a blinded study. […] FIG. 4B depicts the regenerative index of the three different conditions. The regenerative index was quantified by expressing the number of newly formed fibers over total nuclei in the injury/regeneration sites; *p<0.01.

[5] = test system: muscle stem cells (satellite cells); experiment: Effects of OT and OTA on muscle stem (satellite) cells; type: cell-based, mouse
[6] = test system: muscle regeneration; conditions: Elabd et al. 2014, cited from earlier work
[7] = test system: muscle stem cells (satellite cells); conditions: cited from earlier work
[8] = test system: muscle regeneration; experiment: Systemic oxytocin or oxytocin antagonist and muscle regeneration in mice; type: in vivo, mouse; conditions: OT alone
Excerpt: OXTR agonists may be used to treat and prevent sarcopenia, improve muscle regeneration after injury and prevent muscle mass loss observed after long term immobilization (bed rest or cast), as well as low gravity (space travel). Specifically, oxytocin is more desirable than other drugs on the market or under development, since it is physiologic, has virtually no side effects and is already FDA approved to induce labor in pregnant women and in clinical trials to treat children with autism. The plasmatic level of oxytocin decreases with age in mice. […] Confirming the dependence of muscle maintenance and repair on oxytocin, mice with a knock out in oxytocin have defective muscle regeneration and premature sarcopenia (loss of muscle tissue). Oxytocin is also known to prevent osteoporosis and regulate fat distribution after menopause. Oxytocin inhibits p16 (marker and effector of senescence) in adult stem cells, thereby enabling their productive responses to maintain and repair tissues.

**Q.** For `Cc1cccc(-c2n[nH]cc2-c2ccc3ncccc3n2)n1` [Alk5i, 2-(3-(6-Methylpyridin-2-yl)-1H-pyrazol-4-yl)-1,5-naphthyridine], which “Percent proliferating cells (BrdU), NPC proliferation” value [1] is on record?
**A.** diminishes proliferation of NPCs

**Q.** What about the “Expression of CDKIs” value ([2]; aged mice) of the same compound?
**A.** attenuates the expression of CDKIs

**Q.** And the Myogenesis and neurogenesis ([2]; aged/old mice, systemic Alk5i alone, listed as ALK5 inhibitor)?
**A.** simultaneously rejuvenates myogenesis and neurogenesis

**Q.** And the Inflammation ([2]; delivered systemically into 2-year old mice)?
**A.** reduces inflammation

**Q.** And the “pSmads in Sox-2+ cells of SGZ” value ([2]; systemically administered)?
**A.** down-modulating pSmads

**Q.** What about the “Percent proliferating cells (BrdU), myoblast proliferation” value [3] of the same compound?
**A.** bi-phasic effect on myoblast proliferation

**Q.** For “TGFβ1: recombinant TGFβ1, given ectopically into injured muscle (R&D systems)”, which “Muscle regeneration after injury, effect of ectopic TGFβ1 alone (histology)” value [4] is on record?
**A.** promotes scarring

**Q.** What about the “Muscle regeneration after injury, effect of ectopic TGFβ1 alone (histology)” value ([4]; listed as TGF-beta 1) of the same compound?
**A.** inhibited muscle regeneration

**Q.** Which “Myogenicity of young satellite cells” value ([5]; young satellite cells) does the source give for `COc1cc(OC2CCN(C(C)=O)CC2)ccc1C(=O)N1CCC(N2C(=O)OCc3ccccc32)CC1` [OTA] here?
**A.** inhibits myogenicity

**Q.** What about the “Muscle regeneration potential in young mice” value ([6]; young mice, injection of oxytocin antagonist) of the same compound?
**A.** prematurely ages their muscle regeneration potential

**Q.** For `CC[C@H](C)[C@@H]1NC(=O)[C@H](Cc2ccc(O)cc2)NC(=O)[C@@H](N)CSSC[C@@H](C(=O)N2CCC[C@H]2C(=O)N[C@@H](CC(C)C)C(=O)NCC(N)=O)NC(=O)[C@H](CC(N)=O)NC(=O)[C@H](CCC(N)=O)NC1=O` [OT, oxytocin], which “pERK in muscle stem cells” value ([5]; muscle stem cells) is on record?
**A.** activates pERK

**Q.** And the “CDKIs in satellite cells” value ([5]; old satellite cells)?
**A.** attenuates CDKIs

**Q.** What about the “Proliferation and myogenicity of old satellite cells” value ([5]; old satellite cells) of the same compound?
**A.** enhances proliferation and myogenicity

**Q.** And the “OtKO satellite cell decline” value ([5]; satellite cells of oxytocin knock out (OtKO) mice)?
**A.** rescues the OtKO satellite cell decline

**Q.** What about the “Muscle regeneration in old mice” value ([6]; old mice, short term subcutaneous injection (systemic delivery)) of the same compound?
**A.** able to restore muscle regeneration

**Q.** And the “p16 (marker and effector of senescence) in adult stem cells” value [7]?
**A.** inhibits p16

**Q.** What about the “Muscle regeneration after injury in mice given ectopic TGFβ1 (histology)” value ([4]; TGFβ1 20 ng/muscle, OT 1 μg/g subcutaneous) of the same compound?
**A.** rescued muscle regeneration; also recorded: rescues the regeneration of young muscle injected with TGFβ1

**Q.** What about the “Muscle maintenance and repair in old mice” value [8] of the same compound?
**A.** significantly enhances muscle maintenance and repair
